From EP0913397B1, “A proces for the synthesis of 1-(4-Arylpiperazine-1-y1)-3-(2-oxypyrrolidin/piperidin-1-yl)propanes as therapeutic agents for hypertension, ischemia, cardiovascular and other adrenergic receptors related disorders” (COUNCIL OF SCIENTIFIC AND INDUSTRIAL RESEARCH, priority 1997, dated 1999) come the findings set out here.

Test [1] has as its system Isolated aortic strip. In words: Isolated aortic strip, endothelin induced contraction.
For test [2], the system named is Hypertensive rat model preparation. In words: Effect on blood pressure, heart rate and adrenaline vasopressor response, anaesthetized hypertensive rat model preparation. Type of test: in vivo. How it is done:
(§1) 2. Effect on blood pressure, heart rate and adrenaline vasopressor response of anaesthetized (pentobarbitone sodium 40 & 60 mg/kg i.p. in cat and rat respectively) normotensive & hypertensive rat & cat model preparations.
(§2) • (a) Cats (2.6-4.0 kg) of either sex anaesthetized with pentobarbitone sodium ([…] i.v.) and showing basal mean arterial blood pressure below 150 mm (Hg) were categorised as normotensive and above 150 mm Hg as hypertensive. Arterial blood pressure (BP) was recorded from one of the carotid artery through a stathum P23 DC pressure transducer and 7P1 low level DC preamplifier on a Grass Model P7 Polygraph, Signals from 7P 1 preamplifier were used to trigger 7P4 Tachograph preamplifier for recording the heart rate (HR). Right femoral vein and Trachea were cannulated for intravenous injections and artificial ventilation respectively. Control responses to intravenous injection of noradrenaline (2-4 ug); acetyl choline (1-2 ug); histamine (1-2 ug) and isoprenaline (1-2 ug) were taken before and after the administration of test doses of each compounds.

Test [3] relates to cat. As to the kind of experiment: In vivo drug antagonism studies in cat. The following applies: 2 uMol dose i.v. in cat.
The subject of test [4] is Langendorff perfused rat heart preparation. In words: Cardioprotective activity, Langendorff perfused rat heart, prolonged period of ischemic insult. Here is the method: Further, in Langendorff perfused rat heart preparation subjected to even up to 90 min. global ischemia, the compound at 0.001 ug/ml conc. given at the time of reperfusion revived normal rhythmic contraction started within 2 min. (Table 1) and incidence of reperfusion induced arrhythmia were abolished. Table 1: Compound administered at the time reperfusion at the dose of 0.001 ug/ml on prolong period (90min.) of ischemic insult.
The rats were killed by decapitation, heart were rapidly excised and placed in ice-cold HEPES tyrode buffer. Then isolated hearts were perfused retrogradely through coronary arteries using the Langendorff technique. The perfusion buffer consisted (in mM) NaCl 137, KCl 5.4, CaCl2 1.8, MgCl 2 1.0, glucose 11.2 and HEPES 3.0. The buffer (pH 7.4) was continuously gassed with oxygen and maintained at 37°C. Coronary flow rate was maintained at 10 ml/min. The heart contracted spontaneously. The perfused heart was allowed to equilibrate for 30 min. before initiation of any insult protocol. The test compounds were given at the time of reperfusion. Some of the compounds were dissolved in ethanol. Final concentration of ethanol in the perfusion buffer was 0.0001% and had no effect of its own on the parameter used. • (a) For brief period of ischemic insult (Hideo et al. Pathophysiology and pathogenesis of stunned myocardium. J. Clin. Invest., 79, 950-961, 1987). Ischemia was initiated by stopping the flow for 16 min. followed by 30 min. reperfusion period. The durations were decided on the initial pilot experiments leading to 50% recovery of function. • (b) For prolong period of ischemic insult (Becker, L.C. & Ambrosio, G. Myocardial consequences of reperfusion Prog. Cardiovas. Dis., 30, 23-44, 1987). Ischemia was initiated by stopping the flow for […] by 30 min. reperfusion.

Test [5] relates to Rat aortic ring preparation. In words: Rat aortic ring preparation, NE induced contraction.
In test [6] the test system is histamine induced bronchoconstriction. As to the kind of experiment: Konzett and Rossler preparation.
Test [7] deals with Isolated Guinea pig ileum preparation. As to the kind of experiment: Isolated Guinea pig ileum preparation, antihistaminic activity. The following applies: 0.5-5.0 ug/ml.
For test [8], the system named is Normotensive cat. In words: Effect on blood pressure, heart rate and adrenaline vasopressor response, anaesthetized normotensive cat. Type of test: in vivo. The following applies: 10 uMol/kg i.d. How it is done:
as §1, §2

The subject of test [9] is anaesthetized (pentobarbitone sodium 35 mg/kg i.v.) cat. As to the kind of experiment: Effect on blood pressure and adrenaline vasopressure response in anaesthetized cat (Table 2). Type of test: in vivo. How it is done:
Table 2: Effect on blood pressure, heart rate and adrenaline vasopressure response at an anaesthetized (pentobarbitone sodium 35 mg/kg i.v.) cat.
as §2

Where [10] appears, read: 0.001 ug/ml given at the time of reperfusion, up to 90 min. global ischemia.

Take `O=C1CCCN1CCCN1CCN(c2ccc(F)cc2)CC1` [Ar=C6H4-4-F, n=1, 1-[4-(4-fluorophenyl)piperazin-1-yl]-3-[2-oxopyrrolidin-1-yl]propane]: in test [1], the Endothelin induced contraction entry was “inhibited significantly”. The “Response to endothelin after washing the preparation” value in test [1] (after washing) is “relaxation rather than contraction”. Moreover, the Heart rate Pre/post treatment (post) in [2] (5 uMol/kg i.d.) amounted to 320 beats/min; in [2] (10 uMol/kg i.d.) it was 340 beats/min; in test [8] (post treatment) it was 170 beats/min. Besides, the Heart rate Pre/post treatment (pre) worked out at 310 beats/min in test [2] (20 uMol/kg i.d., pre treatment) and 200 beats/min in test [8] (pre treatment). The “reduction of the fall in blood pressure” value in test [3] (glibenclamide pretreatment) was “only partially reduced”. Besides, the “reduction of antihypertensive effect” value in test [3] (pretreatment with Dup-753) was 33%. Besides, the “alteration of antihypertensive effect” value in [3] (pretreatment with atropine sulphate), in test [3] (pretreatment with mepyramine maleate), in test [3] (pretreatment with propranolol) and in test [3] (pretreatment with yohimbine) was “failed to alter” each time. For the same molecule, the “incidence of reperfusion induced arrhythmia” value in test [4] (setting [10]) is reported as “abolished”. In [4] (setting [10]), the “time to start of normal rhythmic contraction” value is not above 2 min. In [5], the NE induced contraction entry is reported as “inhibited”. Also, the “antihistaminic activity against histamine induced bronchoconstriction” value in [6] is recorded as “some antihistaminic activity”. Also, the antihistaminic activity result in test [7] is “significant antihistaminic activity”.

For `CCc1ccccc1N1CCN(CCCN2CCCCC2=O)CC1` [Ar=C6H4-2-C2H5, n=2, 1-[4-(Z-ethylphenyll)piperazin-1-yl]-3-[2-oxopiperidin-1-yl]propane], in test [9] (2.0 umol/kg i.v.), the “B. P. fall %” value turned out to be 35% and the Dur. turned out to be 55 min. Also, in test [9] (10.0 umol/kg i.v.), the “Adrenaline vasopressure response % inhibition” value was “R (R=Reversal)”, the “B. P. fall %” value was found to be 20% and the Dur. came out at 63 min.

For `O=C1CCCCN1CCCN1CCN(c2cccc(C(F)(F)F)c2)CC1` [Ar=C6H4-3-CF3, n=2, 1-[4-(3-trifluoromethylphenyl)piperazin-1-yl]-3-[2-oxopiperidin-1-yl]propane], the Dur. result in test [9] (10.0 umol/kg i.v.) is given as “Tr”.

The molecule `COC(=O)C1=C(C)NC(C)=C(C(=O)OC)C1c1ccccc1[N+](=O)[O-]` [Nifedipine, reference compound] came in with an Onset in [4] (10^-6M, ischemic insult 45 min.) of 2.5 min.

On to `CCc1ccc(N2CCN(CCCN3CCCC3=O)CC2)cc1` [Ar=C6H4-4-C2H5, n=1, 1-[4-(4-ethylphenyl)piperazin-1-yl]-3-[2-oxopyrrolidin-1-yl]propane], for which the Dur. entry in [9] (2.0 umol/kg i.v.) is “Tr”.
